Results taken from patent EP0934745B1, “Use of androsterone derivatives for inhibiting DNA binding of ap-1 and airway smooth muscle proliferation” (CHARLOTTE-MECKLENBURG HOSPITAL doing business as Carolinas …, priority 1998, dated 1999).
pIC50: −log10 of the molar value.

Test system: rat tracheal smooth muscle
Assay: Proliferation of cultured airway smooth muscle (MTT reduction, cell counts)
Format: cell-based
Conditions: for growth inhibition by direct visual count of stained cells: 10% FBS, 15,000 cells/well cultured for 24 hours (Figure 4A); for inhibition of FBS-induced cell proliferation (comparison in words): 10% FBS, 15,000 cells/well, 92-96 hours, MTT (Figures 3A, 3C)
Protocol: Polyclonal horseradish peroxidase anti-rabbit IgG was from Transduction Laboratories (Lexington, KY). M-MLV reverse transcriptase was from Life Technologies (Gaithersburg, MD). All other materials were obtained from Sigma unless specified. Measurement of Cultured Airway Smooth Muscle Proliferation. Rat tracheal smooth muscle was cultured by euthanizing rats with pentobarbital overdose and removal of their tracheas. The posterior tracheal membrane was isolated, minced and digested twice for 30 minutes at 37°C. in HBSS containing 0.2% type IV collagenase and 0.05% type IV elastase. Each enzyme digest was collected and centrifuged for 5 minutes at 500 g at room temperature. The supernatant was removed and the pellet was resuspended in DMEM supplemented with 10% FBS, nonessential amino acids, penicillin (100 U/ml), streptomycin (100 µg/ml) and amphotericin (250 ng/ml). Cells were seeded in this medium into 25-cm^2 flasks at 2 x 10^5 cells per flask and incubated in a humidified atmosphere of 5% CO2/95% air at 37°C. Upon reaching confluence, cells were detached with 0.25% trypsin-0.002% EDTA solution for passage.
Proliferation of cultured airway smooth muscle was quantitated using modification of a previously reported colorimetric method based upon metabolic reduction of the soluble yellow tetrazolium dye 3-[4,5-dimethylthiazol]-2yl-2,5-diphenyl tetrazolium bromide (MTT) to its insoluble purple formazan by the action of mitochondrial succinyl dehydrogenase. See Hirst, S.J., Barnes, P.J., and Twort, C.H.C., "Quantifying proliferation of cultured human and rabbit airway smooth muscle in response to serum and platelet derived growth factor," Am. J. Respir. Cell Mol. Biol., 7, 574-581 (1992). This assay empirically distinguishes between dead and living cells. For proliferation studies, cells were seeded into 24-well uncoated plastic plates at 15,000-50,000 cells per well and cultured with DMEM and mitogens. After 24-96 hours the medium was replaced with 1 ml/well fresh DMEM containing 100 µg/ml MTT and 0.5% FBS, and plates were incubated an additional hour MTT-containing medium was removed, cells were washed twice with 1 ml of sterile Dulbecco's modified phosphate buffered saline without Ca^2+ or Mg^2+ (DPBS), 0.5 ml dimethylsulfoxide (DMSO) was added to each well, and the absorbance of the solubilized purple formazan dye was measured at 540 nm on a Shimadzu UV160U spectrophotometer. A total of 4-6 wells was studied at each treatment condition.
The optimum concentration of FBS for use as a mitogenic stimulus was determined by incubating 15,000 cells per well with DMEM containing 0.25, 1.0, 5.0 or 10.0% FBS and MTT reduction was determined after 24, 48, 72 or 96 hours. […] After 24 hours, cells were washed twice with DPBS, fixed and permeabilized by two sequential 5 minute exposures to ice-cold methanol, stained with Giemsa-modified Wright's stain for 3 minutes and washed with DPBS. Cell counts were performed on 10 random fields at 40 power using a 0.01-cm^2 ocular grid. Cell Culture Treatments for Measurement of Airway Smooth Muscle Proliferation. The effect of dehydroepiandrosterone (DHEA) and 16α-bromoepiandrosterone (16α-BrEA) on cellular proliferation was studied in cultures stimulated with 0.5-10% FBS or 1-50 ng/ml recombinant human platelet derived growth factor (PDGF-AA). […] See, for example, the method of Le, Y. Y. , and Xu, R.B., "The molecular mechanism of the action of the pharmacological doses of glucocorticoids. Studies on the low-affinity glucocorticoid receptor," Receptor, 5, 63-69 (1995).

Row | Compound | growth inhibition by direct visual count of stained cells | inhibition of FBS-induced cell proliferation (comparison in words) | pIC50 (Rattus norvegicus, 48 h, read-out: 50% inhibitory concentration) | cell proliferation stimulated by PDGF (50 ng/ml PDGF, 50,000 cells/well cultured for 72 hours, MTT (Figure 3B))
1 | C[C@]12CC[C@H](O)C[C@@H]1CC[C@@H]1[C@@H]2CC[C@]2(C)C(=O)[C@H](Br)C[C@@H]12 [16α-BrEA, 16α-bromoepiandrosterone] | confirmed by cell counts | even more potent inhibitor of FBS-induced cell proliferation than DHEA | 5.12 | 
2 | C[C@]12CC[C@H](O)CC1=CC[C@@H]1[C@@H]2CC[C@]2(C)C(=O)CC[C@@H]12 [DHEA, dehydroepiandrosterone] | confirmed by cell counts | more active than DHEA-sulfate at high concentrations |  | inhibites cell proliferation
